{"source": "patent US20250325256A1", "about": "“LIPID PATCH” (SENSACH AB, priority 2021, published 2025)", "key": {"[1]": {"test": "Passive diffusion extraction of Trp and Kyn", "type": "in vitro ADME, pig", "conditions": "for Normalized cumulative amount Passive / Flux Passive / Cumulative amount Passive: mean ± SEM", "procedure": "Pig skin, purchased from a local abattoir, was gently cleaned post-sacrifice under cold running water. The skin from abdomen or from the inside of the outer ear was used as in vitro skin model. […] Skin samples were then wrapped individually in Parafilm™ and kept at −20° C. for not more than three months until use. Prior to extraction experiments, skin was cut into 4 cm^2 membranes while still being frozen. Prepared skin membranes were then left at ambient environment for 30 minutes to thaw and obtain room temperature. The integrity of each skin membrane was visually inspected against the light in order to ensure that there were no visible damages (holes). Hairs were then further trimmed with scissors and skin was gently rinsed under cold running water.\nIn order to determine if reverse iontophoresis can enhance the extraction of Trp compared to their passive diffusion extraction, similar experiments were conducted without the current passage. These passive diffusion experiments were conducted using the same horizontal side-by-side cell setup in parallel to reverse iontophoresis experiments in order to ensure identical conditions. In line with reverse iontophoretic experiment, after the 6-hour sampling, subdermal compartment was emptied and experiment was allowed to continue for another 18 hours. Passive diffusion experiments were repeated four times (n=4).\nPrior to HPLC-UV analysis, samples were thawed and vortexed.\nAnodal, cathodal and passive fluxes of Trp and Kyn were directly calculated from the amount (mol) extracted at each sampling interval and normalized for the surface area available for extraction (0.785 cm^2) and duration of the interval (in hours). The 6-hour flux values were used for the analysis of transport direction as well for comparison between reverse iontophoretic and passive extraction efficiency. The physiochemical properties of both endogenous substances were estimated. In order to compare results, the enhancement ratio (ER) was determined after 6 hours as […]"}, "[2]": {"type": "in vitro ADME, pig", "procedure": "Therefore, identical reverse iontophoretic extraction experiments were performed with an empty donor solution (i.e., neat PBS buffer pH 7.4) and the results are shown in FIG. 14. As in the previous section, Trp was extracted towards both receptor compartments, however, the main direction of extraction was towards the cathode. […] This is most likely due to the fact that the amount of extracted Kyn was below the limit of detection by means of HPLC-UV. Therefore, a more sensitive analysis technique is required for quantification of endogenously present Kyn. The cumulative amount of extracted Trp to the cathode was 0.44±0.06 nmol/cm^2 and the anode 0.22±0.05 nmol/cm^2.\nControl reverse iontophoretic extraction experiments were conducted in order to estimate the levels of endogenous Trp and, potentially Kyn. It is known that Trp is present in the SC as a part of natural moisturizing factor (NMF), which primarily consists of free amino acids and their derivatives55,56. These experiments were performed using the identical experimental setup with a neat PBS buffer (pH 7.4) in the donor compartment (i.e., no Trp or Kyn being present) and 10 mM HEPES with 60 mM NaCl as background electrolyte (pH 7.4). Sampling was performed once an hour for 6 hours by withdrawing 1 mL of receptor solution and replacing it with a 1 mL of fresh HEPES buffer)."}, "[3]": {"test": "Post iontophoretic passive extraction (further 18 hours)", "type": "in vitro ADME, pig", "conditions": "for Normalized cumulative amount at anode / Normalized cumulative amount at cathode: mean ± SEM", "description": "Therefore, while enhancing extraction at the cathode, electroosmosis (at pH>skin pI) retards the extraction of anions and zwitterions towards the anode as they have to move against the solvent flow. This may result in a build-up of zwitterions moving towards the anode and against the electroosmotic flow. Therefore, the skin membrane that faces the anodal compartment could potentially contain higher amounts of zwitterionic compounds compared to the skin membrane facing the cathodal compartment. In order to further investigate the effect of electroosmosis, the post iontophoretic passive extraction experiments were performed for another 18 hours.\nThe effect of receptor solution pH on the cumulative amount of endogenous substances extracted from the skin membrane during post iontophoretic passive extraction as well as from passive control experiments is shown in FIG. 16. […] Moreover, in post iontophoretic experiments, there was an increase in the amount of endogenous substances passively extracted into anode compartment with increased pH. In order to determine the amount of endogenous substances obtained during the post iontophoretic step, the cumulative amount of endogenous substances extracted during 6 hours of reverse iontophoresis were subtracted from the total cumulative amount.\nIn extraction experiments preformed without a cubic phase, sampling was performed every hour for six hours by withdrawing 1 mL from the receptor compartments and replacing it with 1 mL of neat buffer solution. After the final sampling the current was stopped and the donor compartment was emptied. The post iontophoretic passive extraction from the skin membranes was allowed to continue for another 18 hours in order to investigate the effect of electroosmosis, since the skin membrane was the only source of endogenous substance after removal of donor solution. In total 7 samplings were performed over 24 hours i.e., 6 during the current passage and 1 from the post iontophoretic passive extraction. In case of reverse iontophoretic extraction into the cubic phase, the sampling was performed in the same way i.e., every hour for 6 hours 1 mL of receptor solution was replaced with a 1 mL of a neat buffer. However, in contrast to previous procedure, the experiment was terminated after 6 hours of current passage. The cubic phase was collected into 1.7 mL Eppendorf tube ensuring that as little residue as possible was left on the skin surface. The extraction of endogenous substances from the cubic phase was performed as follows: 1 mL of Milli-Q water was added to the cubic phase and left on shaker for 1 hour. After that, each Eppendorf tube was vortex for 1 minute and the final aqueous solution was collected with a syringe. Small part of a cubic phase was taken for SAXD measurements in order to investigate any potential changes in the phase after reverse iontophoretic experiment."}, "[4]": {"conditions": "pH 4.0, 24 h amount minus first 6 hours"}, "[5]": {"conditions": "pH 4.0, from normalized cumulative amounts"}, "[6]": {"conditions": "pH 7.4, 24 h amount minus first 6 hours"}, "[7]": {"conditions": "pH 7.4, from normalized cumulative amounts"}, "[8]": {"conditions": "pH 9.0, 24 h amount minus first 6 hours"}, "[9]": {"conditions": "pH 9.0, from normalized cumulative amounts"}, "[10]": {"conditions": "receptor pH 4.0, donor pH 7.4, after 6 h"}, "[11]": {"conditions": "receptor pH 7.4, donor pH 7.4, after 6 h"}, "[12]": {"conditions": "receptor pH 9.0, donor pH 7.4, after 6 h"}}, "data": [{"smiles": "N[C@@H](Cc1c[nH]c2ccccc12)C(=O)O", "note": "[Trp, L-tryptophan]", "values": [{"measurement": "Normalized cumulative amount Passive", "setting": "[1]; [4]", "result": "0.49 ± 0.49", "unit": "nmol/cm^2"}, {"measurement": "Ratio (Trp/Kyn) Passive", "setting": "[1]; [5]", "result": 1.81}, {"measurement": "Normalized cumulative amount Passive", "setting": "[1]; [6]", "result": "2.87 ± 1.66", "unit": "nmol/cm^2"}, {"measurement": "cumulative amount by passive diffusion (QP)", "setting": "[1]; pH 7.4, after 5 hours", "result": "0.54±0.12", "unit": "nmol/cm^2"}, {"measurement": "cumulative amount by passive diffusion (QP)", "setting": "[1]; pH 7.4, after the first hour", "result": "0.30±0.04", "unit": "nmol/cm^2"}, {"measurement": "Ratio (Trp/Kyn) Passive", "setting": "[1]; [7]", "result": 1.27}, {"measurement": "Normalized cumulative amount Passive", "setting": "[1]; [8]", "result": "3.50 ± 0.48", "unit": "nmol/cm^2"}, {"measurement": "Ratio (Trp/Kyn) Passive", "setting": "[1]; [9]", "result": "1.22 ± 0.19"}, {"measurement": "Flux Passive", "setting": "[1]; receptor pH 4.0, after 6 hours", "result": "0.01 ± 0.01 nmol/(h · cm^2)"}, {"measurement": "Cumulative amount Passive", "setting": "[1]; [10]", "result": "0.18±0.18", "unit": "nmol/cm^2"}, {"measurement": "Flux Passive", "setting": "[1]; receptor pH 7.4, after 6 hours", "result": "0.07 ± 0.03 nmol/(h · cm^2)"}, {"measurement": "Cumulative amount Passive", "setting": "[1]; [11]", "result": "0.62±0.13", "unit": "nmol/cm^2"}, {"measurement": "Flux Passive", "setting": "[1]; receptor pH 9.0, after 6 hours", "result": "0.10 ± 0.03 nmol/(h · cm^2)"}, {"measurement": "Cumulative amount Passive", "setting": "[1]; [12]", "result": "0.72±0.09", "unit": "nmol/cm^2"}, {"measurement": "contribution of endogenous Trp to the total cumulative amount of extracted Trp (at the cathode)", "setting": "[2]; pig, 6 h, pH 7.4", "result": "approximately 6%"}, {"measurement": "cumulative amount of extracted endogenous Trp to the anode", "setting": "[2]; pig, 6 h, pH 7.4", "result": "0.22±0.05", "unit": "nmol/cm^2"}, {"measurement": "cumulative amount of extracted endogenous Trp to the cathode", "setting": "[2]; pig, 6 h, pH 7.4", "result": "0.44±0.06", "unit": "nmol/cm^2"}, {"measurement": "Normalized cumulative amount at anode", "setting": "[3]; [4]", "result": "6.22 ± 1.49", "unit": "nmol/cm^2"}, {"measurement": "Normalized cumulative amount at cathode", "setting": "[3]; [4]", "result": "5.36 ± 1.32", "unit": "nmol/cm^2"}, {"measurement": "Ratio (Trp/Kyn) at anode", "setting": "[3]; [5]", "result": "1.19 ± 0.17"}, {"measurement": "Ratio (Trp/Kyn) at cathode", "setting": "[3]; [5]", "result": "1.05 ± 0.03"}, {"measurement": "Normalized cumulative amount at anode", "setting": "[3]; [6]", "result": "14.13 ± 2.25", "unit": "nmol/cm^2"}, {"measurement": "Normalized cumulative amount at cathode", "setting": "[3]; [6]", "result": "7.38 ± 2.57", "unit": "nmol/cm^2"}, {"measurement": "Ratio (Trp/Kyn) at anode", "setting": "[3]; [7]", "result": "0.99 ± 0.02"}, {"measurement": "Ratio (Trp/Kyn) at cathode", "setting": "[3]; [7]", "result": "0.86 ± 0.08"}, {"measurement": "Normalized cumulative amount at anode", "setting": "[3]; [8]", "result": "17.52 ± 1.58", "unit": "nmol/cm^2"}, {"measurement": "Normalized cumulative amount at cathode", "setting": "[3]; [8]", "result": "9.77 ± 1.95", "unit": "nmol/cm^2"}, {"measurement": "Ratio (Trp/Kyn) at anode", "setting": "[3]; [9]", "result": "0.89 ± 0.02"}, {"measurement": "Ratio (Trp/Kyn) at cathode", "setting": "[3]; [9]", "result": "0.95 ± 0.02"}]}, {"smiles": "Nc1ccccc1C(=O)C[C@H](N)C(=O)O", "note": "[Kyn, L-kynurenine]", "values": [{"measurement": "Normalized cumulative amount Passive", "setting": "[1]; [4]", "result": "0.27 ± 0.27", "unit": "nmol/cm^2"}, {"measurement": "Normalized cumulative amount Passive", "setting": "[1]; [6]", "result": "2.59 ± 1.50", "unit": "nmol/cm^2"}, {"measurement": "Normalized cumulative amount Passive", "setting": "[1]; [8]", "result": "3.81 ± 0.93", "unit": "nmol/cm^2"}, {"measurement": "Cumulative amount Passive", "setting": "[1]; [10]", "result": "<LOQ"}, {"measurement": "Cumulative amount Passive", "setting": "[1]; [11]", "result": "<LOQ"}, {"measurement": "Cumulative amount Passive", "setting": "[1]; [12]", "result": "<LOQ"}, {"measurement": "detection of endogenous Kyn", "setting": "[2]", "result": "no Kyn was detected"}, {"measurement": "Normalized cumulative amount at anode", "setting": "[3]; [4]", "result": "6.56 ± 2.40", "unit": "nmol/cm^2"}, {"measurement": "Normalized cumulative amount at cathode", "setting": "[3]; [4]", "result": "5.31 ± 1.35", "unit": "nmol/cm^2"}, {"measurement": "Normalized cumulative amount at anode", "setting": "[3]; [6]", "result": "14.35 ± 2.33", "unit": "nmol/cm^2"}, {"measurement": "Normalized cumulative amount at cathode", "setting": "[3]; [6]", "result": "2.12 ± 8.37", "unit": "nmol/cm^2"}, {"measurement": "Normalized cumulative amount at anode", "setting": "[3]; [8]", "result": "19.90 ± 2.45", "unit": "nmol/cm^2"}, {"measurement": "Normalized cumulative amount at cathode", "setting": "[3]; [8]", "result": "10.29 ± 2.07", "unit": "nmol/cm^2"}]}]}
